Source: the NIST ThermoML archive (doi:10.1016/j.jct.2012.09.009)

Details: 101.33 kPa, Liquid; for speed of sound: Sing-around technique in a fixed-path interferometer; for mass density: vibrating tube

CC(C)CC(C)(C)C [2,2,4-trimethylpentane]
Details | mass density [kg/m3] | speed of sound [m/s]
278.15 K | 704.1 | 1168.4
283.15 K | 700.05 | 1146.8
288.15 K | 695.98 | 1125.4
293.15 K | 691.89 | 1104.3
298.15 K | 687.77 | 1083.1
303.15 K | 683.64 | 1062.4
308.15 K | 679.48 | 1041.6
313.15 K | 675.28 | 1020.9
318.15 K | 671.07 | 1000.5
323.15 K | 666.81 | 980
328.15 K | 662.52 | 959.7
333.15 K | 658.19 | 939.7
338.15 K | 653.81 | 919.7
343.15 K | 649.4 | 900

Cc1ccccc1 [toluene]
Details | speed of sound [m/s]
278.15 K | 1394.1
283.15 K | 1371.5
288.15 K | 1349.1
293.15 K | 1326.9
298.15 K | 1305.1
303.15 K | 1283.6
308.15 K | 1262.2
313.15 K | 1240.9
318.15 K | 1219.9
323.15 K | 1198.9
328.15 K | 1178.2
333.15 K | 1157.7
338.15 K | 1137.2
343.15 K | 1117
